Where two headings read alike, the source gives them in different places.
Experiments:
[1] = tested on: Myzus persicae; assay: Myzus test (MYZUPE spray treatment); type: in vivo; settings: Chinese cabbage leaf discs, after 6 days
Description: Myzus Test (MYZUPE Spray Treatment) Solvent: 78 parts by weight of acetone • • 1.5 parts by weight of dimethylformamide Emulsifier: 0.5 part by weight of alkylaryl polyglycol ether To produce an appropriate active ingredient formulation, 1 part by weight of active ingredient is mixed with the stated amounts of solvent and emulsifier, and the concentrate is diluted with emulsifier-containing water to the desired concentration. Leaf discs of Chinese cabbage (Brassica pekinensis) infested by all stages of the green peach aphid (Myzus persicae) are sprayed with an active ingredient formulation of the desired concentration. After 6 days, the efficacy in % is determined. 100% means that all of the aphids have been killed; 0% means that none of the aphids have been killed.

[2] = tested on: Phaedon cochleariae; assay: Phaedon test (PHAECO spray treatment); type: in vivo; settings: Chinese cabbage leaf discs, after 7 days
Procedure, shortened: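 Chinese cabbage leaf discs were sprayed with compound in acetone/DMF with emulsifier, diluted in water to the test concentration. After drying, discs were infested with mustard beetle larvae. Efficacy in % was scored after 7 days, where 100% means all larvae were killed and 0% means none.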

[3] = tested on: Spodoptera frugiperda; assay: Spodoptera frugiperda test (SPODFR spray treatment); type: in vivo; settings: maize leaf discs, after 7 days
Procedure, shortened: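 Maize leaf discs sprayed with active ingredient formulated in acetone/dimethylformamide with emulsifier, diluted in emulsifier-containing water to the desired concentration. After drying, discs were populated with armyworm caterpillars. Efficacy (%) scored after 7 days: 100% all caterpillars killed, 0% none killed.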

[4] = tested on: Tetranychus urticae; assay: Tetranychus test, OP-resistant (TETRUR spray treatment); type: in vivo; settings: bean leaf discs, after 6 days
Procedure, shortened: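 Bean leaf discs infested with all stages of OP-resistant T. urticae sprayed with compound formulated in acetone/DMF plus alkylaryl polyglycol ether emulsifier, diluted in water. Efficacy (% mites killed) scored after 6 days.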

[5] = logP (HPLC-MS); type: physicochemical
[6] = tested on: Boophilus microplus; assay: Boophilus microplus test (BOOPMI injection); type: in vivo; settings: application rate 20 μg/animal; injected into the abdomen; after 7 days
Description: Boophilus microplus Test (BOOPMI Injection) Solvent: dimethyl sulphoxide To prepare an appropriate active ingredient formulation, 10 mg of active ingredient are mixed with 0.5 ml of solvent and the concentrate is diluted with solvent to the desired concentration. The active ingredient solution is injected into the abdomen (Boophilus microplus), and the animals are transferred into dishes and stored in a climate-controlled room. After 7 days, the efficacy in % is determined. The activity is assessed by laying of fertile eggs. 100% means that none of the ticks has laid any fertile eggs.

[7] = tested on: Ctenocephalides felis; assay: Ctenocephalides felis oral (CTECFE); type: in vivo; settings: application rate 100 ppm in citrated cattle blood; after 2 days
Description: Ctenocephalides felis Oral ([…]) Solvent: 1 part by weight of dimethyl sulphoxide For the purpose of preparing an appropriate active ingredient formulation, 10 mg of active ingredient are mixed with 0.5 ml of dimethyl sulphoxide. A portion of the concentrate is diluted with citrated cattle blood, and the desired concentration is prepared. About 20 unfed adult fleas (Ctenocephalides felis) are placed into a chamber which is closed at the top and bottom with gauze. A metal cylinder whose bottom end is closed with Parafilm is placed onto the chamber. The cylinder contains the blood/active ingredient formulation, which can be imbibed by the fleas through the Parafilm membrane. After 2 days, the kill in % is determined 100% means that all of the fleas have been killed; 0% means that none of the fleas have been killed.

[8] = tested on: Lucilia cuprina larvae; assay: Lucilia cuprina test (LUCICU); type: in vivo; settings: application rate 100 ppm; treated horse meat; after 2 days
Description: (§1) Lucilia cuprina Test (LUCICU) Solvent: dimethyl sulphoxide To prepare an appropriate active ingredient formulation, 10 mg of active ingredient are mixed with 0.5 ml of dimethyl sulphoxide and the concentrate is diluted with water to the desired concentration. Vessels containing horse meat treated with the active ingredient formulation of the desired concentration are populated with about 20 Lucilia cuprina larvae. After 2 days, the kill in % is determined. 100% means that all of the larvae have been killed; 0% means that none of the larvae have been killed.

[9] = tested on: adult Musca domestica; assay: Musca domestica test (MUSCDO); type: in vivo; settings: application rate 100 ppm; treated sponge; after 2 days
Description: as §1, with “Musca domestica” for “Lucilia cuprina”, “(MUSCDO)” for “(LUCICU)”, “a sponge” for “horse meat”, “adult Musca domestica.” for “about 20 Lucilia cuprina larvae.”, “determined” for “determined.”, “flies” for “larvae”

[10] = HPLC, reversed-phase column (C18), 43° C., acidic range pH 2.7, EEC directive 79/831 Annex V.A8, two values = both regioisomers (G = N)
[11] = HPLC, reversed-phase column (C18), acidic range pH 2.7, acetonitrile (0.1% formic acid)/water gradient, 43° C., calibration with unbranched alkan-2-ones

CCn1c(C(=O)NC(c2cc(Cl)cc(Cl)c2)C(F)(F)F)cc2cc(C(=O)NC3(C#N)CC3)c(C)cc21 (stereo not drawn) [Compound 291]
100%: efficacy in % ([2]; application rate 100 g/ha) | efficacy in % ([3]; application rate 100 g/ha) | efficacy in % ([4]; application rate 100 g/ha)
90%: efficacy in % ([1]; application rate 100 g/ha)
4.07: log p [5, 10]

CCn1c(C(=O)NC(c2cc(Cl)cc(Cl)c2)C(F)(F)F)cc2cc(C(=O)NC3(C#N)CC3)c(C)cc21 (stereo not drawn) [Compound 195]
4.09: log p [5, 11]
100%: efficacy (laying of fertile eggs) [6] | efficacy (kill in %) [7] | efficacy (kill in %) [8] | efficacy (kill in %) [9] | efficacy in % ([2]; application rate 100 g/ha) | efficacy in % ([3]; application rate 100 g/ha) | efficacy in % ([4]; application rate 100 g/ha)

CCn1c(C(=O)NC(c2cc(Cl)c(Cl)c(Cl)c2)C(F)(F)F)cc2cc(C(=O)NC3(C#N)CC3)c(Cl)cc21 (stereo not drawn) [Compound 275]
100%: efficacy (laying of fertile eggs) [6] | efficacy (kill in %) [7] | efficacy (kill in %) [8] | efficacy (kill in %) [9] | efficacy in % ([2]; application rate 100 g/ha) | efficacy in % ([3]; application rate 100 g/ha) | efficacy in % ([4]; application rate 100 g/ha)
4.43: log p [5, 11]

CCn1c(C(=O)NC(c2cc(Cl)cc(Cl)c2)C(F)(F)F)cc2cc(C(=O)NC3CC3)c(Cl)cc21 (stereo not drawn) [Compound 13]
100%: efficacy (laying of fertile eggs) [6] | efficacy (kill in %) [7] | efficacy (kill in %) [8] | efficacy (kill in %) [9] | efficacy in % ([2]; application rate 500 g/ha) | efficacy in % ([3]; application rate 500 g/ha)
80%: efficacy in % ([4]; application rate 500 g/ha)
4.27: log p [5, 11]

CCn1c(C(=O)NC(c2ccc(F)c(C(F)(F)F)c2)C(F)(F)F)cc2cc(C(=O)NC3(C#N)CC3)c(Cl)cc21 (stereo not drawn) [Compound 16]
100%: efficacy (laying of fertile eggs) [6] | efficacy (kill in %) [7] | efficacy (kill in %) [8] | efficacy (kill in %) [9] | efficacy in % ([2]; application rate 100 g/ha) | efficacy in % ([3]; application rate 100 g/ha) | efficacy in % ([4]; application rate 100 g/ha)
3.88: log p [5, 11]

CCn1c(C(=O)NC(c2ccc(F)c(C(F)(F)F)c2)C(F)(F)F)cc2cc(C(=O)NC3CC3)c(C)cc21 (stereo not drawn) [Compound 188]
3.76: log p [5, 11]
100%: efficacy (laying of fertile eggs) [6] | efficacy (kill in %) [7] | efficacy (kill in %) [8] | efficacy (kill in %) [9] | efficacy in % ([2]; application rate 100 g/ha) | efficacy in % ([3]; application rate 100 g/ha) | efficacy in % ([4]; application rate 100 g/ha)

CCn1c(C(=O)NC(c2cccc(C(F)(F)F)c2)C(F)(F)F)cc2cc(C(=O)NC3(C)CC3)c(Cl)cc21 (stereo not drawn) [Compound 22]
83%: efficacy in % ([3]; application rate 100 g/ha)
100%: efficacy (laying of fertile eggs) [6] | efficacy (kill in %) [7] | efficacy (kill in %) [8] | efficacy (kill in %) [9] | efficacy in % ([2]; application rate 100 g/ha)
80%: efficacy in % ([4]; application rate 100 g/ha)
4.16: log p [5, 11]

CCn1c(C(=O)NC(c2ccc(F)c(Br)c2)C(F)(F)F)cc2cc(C(=O)NC3CC3)c(C)cc21 (stereo not drawn) [Compound 190]
100%: efficacy (laying of fertile eggs) [6] | efficacy (kill in %) [7] | efficacy (kill in %) [8] | efficacy (kill in %) [9] | efficacy in % ([2]; application rate 100 g/ha) | efficacy in % ([3]; application rate 100 g/ha) | efficacy in % ([4]; application rate 100 g/ha)
3.70: log p [5, 11]

N#CCn1c(C(=O)NC(c2ccc(F)c(C(F)(F)F)c2)C(F)(F)F)nc2cc(C(=O)NC3CC3)c(Cl)cc21 (stereo not drawn) [Compound 301]
90%: efficacy in % ([1]; application rate 500 g/ha) | efficacy in % ([4]; application rate 500 g/ha)
100%: efficacy in % ([2]; application rate 500 g/ha) | efficacy in % ([3]; application rate 500 g/ha)

CCn1c(C(=O)NC(c2ccc(F)c(Br)c2)C(F)(F)F)cc2cc(C(=O)NC3(C#N)CC3)c(Cl)cc21 (stereo not drawn) [Compound 42]
100%: efficacy (laying of fertile eggs) [6] | efficacy (kill in %) [7] | efficacy (kill in %) [8] | efficacy (kill in %) [9] | efficacy in % ([2]; application rate 100 g/ha) | efficacy in % ([3]; application rate 100 g/ha) | efficacy in % ([4]; application rate 100 g/ha)
3.76: log p [5, 11]

CCn1c(C(=O)NC(c2ccc(F)c(C(F)(F)F)c2)C(F)(F)F)cc2cc(C(=O)NC3CC3)c(Cl)cc21 (stereo not drawn) [Compound 3]
100%: efficacy (laying of fertile eggs) [6] | efficacy (kill in %) [7] | efficacy (kill in %) [8] | efficacy (kill in %) [9] | efficacy in % ([2]; application rate 100 g/ha) | efficacy in % ([3]; application rate 100 g/ha) | efficacy in % ([4]; application rate 500 g/ha)
3.93: log p [5, 11]

CCCn1c(C(=O)NC(c2cccc(C(F)(F)F)c2)C(F)(F)F)cc2cc(C(=O)NC3(C#N)CC3)c(Cl)cc21 (stereo not drawn) [Compound 288]
4.03: log p [5, 10]
100%: efficacy (laying of fertile eggs) [6] | efficacy (kill in %) [7] | efficacy (kill in %) [8] | efficacy (kill in %) [9] | efficacy in % ([2]; application rate 100 g/ha) | efficacy in % ([3]; application rate 100 g/ha) | efficacy in % ([4]; application rate 100 g/ha)

CC#CCn1c(C(=O)NC(c2cccc(C(F)(F)F)c2)C(F)(F)F)cc2cc(C(=O)NC3(C#N)CC3)c(Cl)cc21 (stereo not drawn) [Compound 285]
90%: efficacy (kill in %) [9]
3.87: log p [5, 10]
100%: efficacy (laying of fertile eggs) [6] | efficacy (kill in %) [7] | efficacy (kill in %) [8] | efficacy in % ([2]; application rate 100 g/ha) | efficacy in % ([3]; application rate 100 g/ha) | efficacy in % ([4]; application rate 100 g/ha)

C#CCn1c(C(=O)NC(c2ccc(F)c(C(F)(F)F)c2)C(F)(F)F)cc2cc(C(=O)NC3(C#N)CC3)c(Cl)cc21 (stereo not drawn) [Compound 61]
3.65: log p [5, 11]
100%: efficacy (laying of fertile eggs) [6] | efficacy (kill in %) [7] | efficacy (kill in %) [8] | efficacy (kill in %) [9] | efficacy in % ([2]; application rate 100 g/ha) | efficacy in % ([3]; application rate 100 g/ha) | efficacy in % ([4]; application rate 100 g/ha)

C#CCn1c(C(=O)NC(c2cccc(C(F)(F)F)c2)C(F)(F)F)cc2cc(C(=O)NC3(C#N)CC3)c(Cl)cc21 (stereo not drawn) [Compound 57, 6-chloro-N^5-(1-cyanocyclopropyl)-1-(prop-2-yn-1-yl)-N^2-{2,2,2-trifluoro-1-[3-(trifluoromethyl)phenyl]ethyl}-1H-indole-2,5-dicarboxamide]
3.49: chromatographic logP ([5]; HPLC, reversed-phase column (C18), acidic range pH 2.7, acetonitrile (0.1% formic acid)/water gradient, 43° C., calibration with unbranched alkan-2-ones, read-out: log p) | chromatographic logP ([5]; HPLC-MS)
100%: efficacy (laying of fertile eggs) [6] | efficacy (kill in %) [7] | efficacy (kill in %) [8] | efficacy (kill in %) [9] | pest or weed control at 100 g/ha ([2]; Phaedon cochleariae, foliar, 168 h, application rate 100 g/ha, read-out: efficacy in %) | efficacy in % ([3]; application rate 100 g/ha) | efficacy in % ([4]; application rate 100 g/ha)

O=C(NC1CC1)c1cc2nc(C(=O)NC(c3cccc(C(F)(F)F)c3)C(F)(F)F)n(C3CC3)c2cc1Cl (stereo not drawn) [Compound 312, 6-chloro-N^5,1-dicyclopropyl-N^2-{2,2,2-trifluoro-1-[3-(trifluoromethyl)phenyl]ethyl}-1H-benzimidazole-2,5-dicarboxamide]
3.48: chromatographic logP ([5]; HPLC, reversed-phase column (C18), 43° C., acidic range pH 2.7, EEC directive 79/831 Annex V.A8, two values = both regioisomers (G = N), read-out: log p) | chromatographic logP ([5]; HPLC-MS)
100%: efficacy in % ([1]; application rate 100 g/ha) | efficacy in % ([1]; application rate 500 g/ha) | pest or weed control at 500 g/ha ([2]; Phaedon cochleariae, foliar, 168 h, application rate 500 g/ha, read-out: efficacy in %) | efficacy in % ([3]; application rate 500 g/ha)

Source: patent US9107411B2, “Indolecarboxamides and benzimidazolecarboxamides as insecticides and acaricides” (BAYER INTELLECTUAL PROPERTY GMBH, priority 2011, dated 2015)
